Entries after “also recorded” stand apart in the source; their conditions may differ.

In experiment [1] the test system is inflammatory cytokines in liver tissue. Briefly: Liver cytokine measurements (bead-based 13-cytokine panel) in WD mice. Format: in vivo, mice (male B6 129SF1/J). As to conditions: week 16. The source says:
Animal experiments. Male B6 129SF1/J mice at 6 weeks of age were obtained from Jackson Laboratories (Bar Harbor, ME). Mice were acclimatized to the animal facility for one week. At the start of the experiment, mice were randomly divided into four groups (n=10 for each group). Three of the four groups were fed ad libitum a Western diet (WD) with 40% Kcal from fat and containing 0.15% cholesterol (D12079B, Research Diets) and a sugar water (SW) solution (23.1 g/L d-fructose+18.9 g/L d-glucose) as previously described (DIAMOND model (15)). After 8 weeks, the three groups of WD-fed mice were randomly selected for treatment with vehicle (WD group) or low (WD-50 group) or high dose (WD-100 group) of […]. The WD group was fed WD and drank sugar water. The WD-50 and WD-100 groups were fed WD and drank sugar water containing, respectively, 50 or 100 mg […] per kg body weight. The treatments were continued for another 8 weeks. Water bottles containing SW and […] or only SW were changed every other day. […] The supernatant was transferred into a new tube and the total protein concentration was measured with the BCA protein assay (Thermo Fisher Scientific, Waltham, MA). A panel of 13 cytokines was quantified with a bead-based ELISA kit (BioLegend, San Diego, CA) following the manufacturer's protocol. […]

For experiment [2], the system named is free fatty acids. Nature of the experiment: Quantification of free fatty acids in liver and serum of WD mice. Format: in vivo, mice (male B6 129SF1/J). The source says: Animal experiments. Male B6 129SF1/J mice at 6 weeks of age were obtained from Jackson Laboratories (Bar Harbor, ME). Mice were acclimatized to the animal facility for one week. At the start of the experiment, mice were randomly divided into four groups (n=10 for each group). Three of the four groups were fed ad libitum a Western diet (WD) with 40% Kcal from fat and containing 0.15% cholesterol (D12079B, Research Diets) and a sugar water (SW) solution (23.1 g/L d-fructose+18.9 g/L d-glucose) as previously described (DIAMOND model (15)). After 8 weeks, the three groups of WD-fed mice were randomly selected for treatment with vehicle (WD group) or low (WD-50 group) or high dose (WD-100 group) of […]. The WD group was fed WD and drank sugar water. The WD-50 and WD-100 groups were fed WD and drank sugar water containing, respectively, 50 or 100 mg […] per kg body weight. […] Quantification of free fatty acids. Serum and liver FFAs were analyzed using targeted LC-MS experiments performed on a quadrupole-time of flight instrument (TripleTOF 5600+, AB Sciex, Framingham, MA) as previously described with minor modifications (Tables 2 and 5). […] Free fatty acids (FFAs) in the liver and serum were quantified using product ion scan experiments (TripleTOF 5600+, AB Sciex, Framingham, MA). […] “Light” experiments with low collision energy were used for quantification. […]

Experiment [3] deals with AMPK. Nature of the experiment: AMPK Western blot in RAW 264.7 macrophages stimulated with palmitate and LPS. As to conditions: RAW 264.7, 1 mM I3A pre-treatment. Format: cell-based, murine. Background: In western blotting, separated proteins are transferred to a membrane and probed.
The subject of experiment [4] is hepatocytes. Nature of the experiment: Cultured hepatocytes (lipid droplet loaded, TNF-α; Fasn/SREBP-1c expression). Type of experiment: cell-based.
Experiment [5] relates to endotoxin-treated murine bone marrow derived macrophages. Briefly: Cytokine expression in endotoxin-treated bone marrow derived macrophages. Format: cell-based.

In the case of `O=C([O-])Cc1c[nH]c2ccccc12.[Na+]` [I3A, Indole-3-acetate sodium salt], in experiment [1] (I3A treated vs WD), the “liver IL-10” value was “downregulated this cytokine”. The “expression of pro-inflammatory cytokines in liver (panel, TNFα, IL-6, Mcp-1 etc.)” value in experiment [1] (WD-50 and WD-100 vs WD, sodium salt) was “dose-dependently attenuated the production of type 1, 2 and 3 cytokines; also recorded: reduced the expression of these cytokines in a dose-dependent manner”. Also, the “liver total FFA concentration, significance of I3A effect” value in experiment [2] (I3A treatment vs WD) was “no significant effect”. In experiment [2] (WD-100 group vs WD, p=0.11), the “liver total FFA concentration, reduction” value was determined as 36 % reduction. Also, in experiment [3], the p-AMPK level result is given as “upregulated p-AMPK to baseline levels” and the “total AMPK level” value is “without altering total AMPK”. Also, the “TNF-α induced production of saturated free fatty acids” value in experiment [4] (cultured hepatocytes loaded with lipid droplets (mimicking steatosis), AhR dependent) is “abrogated TNF-α induced production of saturated free fatty acids”. In addition, in experiment [4] (hepatocytes, AhR dependent manner), the “expression of Fasn and SREBP-1c” value was “decreased the expression of Fasn and its transcriptional regulator SREBP-1c”. In addition, in experiment [5], the “expression of IL-1, TNF-α, and MCP-1” value is “dose-dependently downregulate the expression of IL-1, TNF-α, and MCP-1”.

The record behind these values is patent US20240189279A1, “IMMUNOMODULATORY COMPOSITIONS AND METHODS OF USE THEREOF” (THE TEXAS A&M UNIVERSITY SYSTEM, priority 2022, published 2024).
